From PubChem BioAssay (NCI)
Where “and” joins values, the source holds several entries; their conditions need not be identical. Equal entries are not always repeated.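 How tested: cells in 96-well plates exposed to compound for 48 hours at five concentrations. GI50 = concentration required for 50% inhibition of growth. TGI: concentration producing complete growth inhibition.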

Assays:
Test in all cases: NCI anticancer screen, dose series, 48 h
DU-145 prostate = tested on: DU-145 prostate
SF-268 CNS = tested on: SF-268 CNS
COLO 205 colon = tested on: COLO 205 colon
CAKI-1 renal = tested on: CAKI-1 renal
KM12 colon = tested on: KM12 colon
HOP-62 NSCLC = tested on: HOP-62 NSCLC
HCT-15 colon = tested on: HCT-15 colon
MCF7 breast = tested on: MCF7 breast
HCT-116 colon = tested on: HCT-116 colon
TK-10 renal = tested on: TK-10 renal

| Compound | GI50 (DU-145 prostate) | TGI (DU-145 prostate) | GI50 (SF-268 CNS) | TGI (SF-268 CNS) | GI50 (COLO 205 colon) | TGI (COLO 205 colon) | GI50 (CAKI-1 renal) | TGI (CAKI-1 renal) | GI50 (KM12 colon) | TGI (KM12 colon) | GI50 (HOP-62 NSCLC) | TGI (HOP-62 NSCLC) | GI50 (HCT-15 colon) | TGI (HCT-15 colon) | GI50 (MCF7 breast) | TGI (MCF7 breast) | GI50 (HCT-116 colon) | TGI (HCT-116 colon) | TGI (TK-10 renal) | GI50 (TK-10 renal) |
| --- | --- | --- | --- | --- | --- | --- | --- | --- | --- | --- | --- | --- | --- | --- | --- | --- | --- | --- | --- | --- |
| COc1cc(C2CC(c3ccc(C)cc3)=NN2C=O)ccc1Oc1ccnc2cc(Cl)ccc12 (stereo not drawn) | > 50 µM | > 50 µM | 11.3 µM | > 50 µM | > 50 µM | > 50 µM | > 50 µM | > 50 µM | > 50 µM | > 50 µM | 1.68 µM | 8.95 µM | > 50 µM | > 50 µM | > 50 µM | > 50 µM | 2.5 µM | > 50 µM |  |  |
| CC1=C(C(=O)Nc2ccccc2C)C(c2ccccc2)C(C(=O)Nc2ccccc2C)=C(C)N1 |  |  |  | > 100 µM |  | 74.2 µM |  | > 100 µM |  | > 100 µM |  | > 100 µM |  | > 100 µM |  |  |  | > 100 µM | > 100 µM |  |
| O=C(c1ccccc1)C(c1ccccc1)C1(O)C(=O)Nc2c(Cl)cc(Cl)cc21 (stereo not drawn) |  |  |  | 51.9 µM |  | 33.7 µM |  | 40.1 µM |  | 82.8 µM |  |  |  | > 100 µM |  |  |  |  | 41.2 µM |  |
| CCOC(=O)[C@@]1(C)C=C2O[C@@H]3OC4(CCCCC4)O[C@@H]3C2=C2C(O)=CC=C(O)[C@]21C(=O)OC |  |  |  | > 68 µM |  | > 68 µM |  | > 68 µM |  | > 68 µM |  | > 68 µM |  | > 68 µM |  |  |  | > 68 µM | > 68 µM |  |
| CCC[CH2][Sn-]([CH2]CCC)([CH2]CCC)[O]c1cc(Cl)c(Cl)cc1Cl |  |  | 0.229 µM | 1.05 µM | 0.191 µM | 0.4 µM |  |  | 0.195 µM | 0.402 µM | 0.228 µM | 0.507 µM | 0.165 µM | 0.33 µM | 0.237 µM | 0.887 µM | 0.154 µM | 0.318 µM | 0.957 µM | 0.287 µM |
| Nn1c(-c2ccccc2)nc2ccc(Br)cc2c1=O |  |  |  | > 100 µM |  | > 100 µM |  | > 100 µM |  | > 100 µM |  |  |  | > 100 µM |  |  |  | > 100 µM | > 100 µM |  |
| Cc1ccc(OCC(=O)N2N=C(c3ccccc3)CC2(O)c2ccccc2)cc1 (stereo not drawn) |  |  |  | > 100 µM |  | > 100 µM |  | > 100 µM |  | > 100 µM |  | 46 µM |  | > 100 µM |  |  |  | > 100 µM | > 100 µM |  |
| CC1=C(C(=O)Nc2c(C)cccc2C)C(c2ccc3c(c2)OCO3)C(C(=O)Nc2c(C)cccc2C)=C(C)N1 |  |  |  | 48.5 µM |  | 47.1 µM |  | 59 µM |  | 29.1 µM |  | 44 µM |  |  |  |  |  | 27.3 µM | 62.1 µM |  |
| N#Cc1cn(C2OC(CO)C(O)C2O)c2ncnc(N)c12 (stereo not drawn) |  |  | < 0.01 µM |  |  |  | 0.0705 µM and 0.045 µM and < 0.01 µM |  |  | > 100 µM | 0.0533 µM |  | < 0.0117 µM |  | 0.0251 µM and 0.045 µM and < 0.0169 µM |  | 0.0264 µM and < 0.01 µM | > 100 µM | 0.0771 µM | 0.000405 µM |
| CN(C)c1cccc2c(S(=O)(=O)N[C@H]3CC[C@H]4[C@@H]5CCc6cc(O)ccc6[C@H]5CC[C@]34C)cccc12 | 2.71 µM | 8.51 µM | 3.03 µM | 15 µM |  |  | 2.05 µM | 7.43 µM |  |  | 3.97 µM | 13.9 µM | 0.951 µM | 8.38 µM | 2.59 µM | > 100 µM | 2.27 µM | 5.85 µM | 9.82 µM | 3.2 µM |
| Cc1c2c(nn1-c1ccc(S(=O)(=O)NC(=S)Nc3ccccc3)cc1)-c1ccccc1CC2 | > 50 µM | > 50 µM | 18.7 µM | > 50 µM | > 50 µM | > 50 µM | 1.85 µM | 36.2 µM | 25.6 µM | > 50 µM |  |  | 38.8 µM | > 50 µM | 11.5 µM | 34.3 µM | 18.2 µM | > 50 µM | 46.9 µM | 10 µM |
| O=C1C(=O)N(C(=O)c2ccc(Cl)c(Cl)c2)c2ccccc21 |  |  |  | > 100 µM |  | > 100 µM |  |  |  | > 100 µM |  |  |  |  |  |  |  |  | > 100 µM |  |
| O=C(c1ccccc1)C(C(=O)c1ccccc1)C1(O)C(=O)c2ccccc2C1=O |  |  |  | > 100 µM |  | > 100 µM |  |  |  | > 100 µM |  | > 100 µM |  | > 100 µM |  |  |  |  | 55.2 µM |  |
| O=C(O)CSc1n[nH]c(-c2ccc(O)cc2)n1 |  |  |  | > 100 µM |  | > 100 µM |  | > 100 µM |  | > 100 µM |  | > 100 µM |  | > 100 µM |  |  |  | > 100 µM | > 100 µM |  |
| O=C1CC(O)C=C1Nc1ccc(Cl)cc1 (stereo not drawn) |  |  |  | > 100 µM |  | 22.3 µM |  | > 100 µM |  | 39.2 µM |  | > 100 µM |  |  |  |  |  | > 100 µM | > 100 µM |  |
| N#CCC(=O)Nc1cccc(C(F)(F)F)c1 |  |  |  | > 100 µM |  | > 100 µM |  | > 100 µM |  | > 100 µM |  | > 100 µM |  | > 100 µM |  |  |  | > 100 µM | > 100 µM |  |
| COc1ccc2cc(C(=O)/C=C/c3cc(OC)c(OC)c(OC)c3)ccc2c1 | 2.06 µM | 11.2 µM | 5.11 µM | 13.7 µM | 13.7 µM | > 50 µM | 3.41 µM | 28.3 µM | 2.3 µM | 35.7 µM | 9.88 µM | 20.8 µM | 1.77 µM | > 50 µM |  |  | 1.62 µM | 8.27 µM | 31.4 µM | 9.61 µM |
| CCOc1cc2ncc(C#N)c(Nc3ccc(OCc4cccc(F)c4)c(Cl)c3)c2cc1NC(=O)CC1CCSS1 (stereo not drawn) | 0.561 µM | 1.36 µM | 0.727 µM | 3.02 µM | 2.39 µM | > 25 µM | 1.77 µM | > 25 µM | 0.49 µM | 1.12 µM |  | > 15.1 µM | 2.76 µM | > 25 µM |  |  | 0.431 µM | 1.07 µM | 6 µM | 0.916 µM |
| COC(=O)C1CC2(CC3=C1CCCC3)OCCO2 (stereo not drawn) |  |  |  | > 100 µM |  | > 100 µM |  | > 100 µM |  | > 100 µM |  | > 100 µM |  | > 100 µM |  |  |  | > 100 µM | > 100 µM |  |
